According to patent publication US20130317064A1 (priority 2011, published 2013):

## Cc1cc(C(F)(F)F)nn1CC(=O)N1CCC(c2nc(NC(=O)C3=C(O)CCCC3=O)cs2)CC1 [I.a.001, 2-hydroxy-6-oxo-cyclohex-1-enecarboxylic acid (2-{1-[2-(5-methyl-3-trifluoromethyl-pyrazol-1-yl)-acetyl]-piperidin-4-yl}-thiazol-4-yl)-amide]
  melting point: 102 to 105 °C
